Experimental findings from US20200308220A1, “AROMATIC-CATIONIC PEPTIDES CONJUGATED TO AN[…] THEIR USE IN TREATING COMPLEX REGIONAL PAIN SYNDROME” (priority 2015, published 2020) are described below.

Where a SMILES comes first, the peptide text is derived from it.

One series has as its system CPIP rats. Nature of the series: Chronic post-ischemia pain (CPIP) rat model of CRPS-I, reversal of mechanical allodynia. As to the method: H-Dmt-D-Arg-Phe-Lys(NH-TEMPO)-NH2 was tested in a chronic post-ischemia pain (CPIP) rat model (see Coderre et al., Pain (2004) 112, 94-105) of CRPS-I in comparison with [Dmt^1]DALDA and morphine (subcutaneous (s.c.) administration). The analgesic potencies (ED50 values) of the compounds were determined based on their ability to reverse mechanical allodynia in CPIP rats (Table 6).

Another series deals with T1, μ receptors (Rattus norvegicus, UniProt P33535).
T1 construct: from tissue; host or cells: rat brain membranes
T1 sequence (P33535 whole entry): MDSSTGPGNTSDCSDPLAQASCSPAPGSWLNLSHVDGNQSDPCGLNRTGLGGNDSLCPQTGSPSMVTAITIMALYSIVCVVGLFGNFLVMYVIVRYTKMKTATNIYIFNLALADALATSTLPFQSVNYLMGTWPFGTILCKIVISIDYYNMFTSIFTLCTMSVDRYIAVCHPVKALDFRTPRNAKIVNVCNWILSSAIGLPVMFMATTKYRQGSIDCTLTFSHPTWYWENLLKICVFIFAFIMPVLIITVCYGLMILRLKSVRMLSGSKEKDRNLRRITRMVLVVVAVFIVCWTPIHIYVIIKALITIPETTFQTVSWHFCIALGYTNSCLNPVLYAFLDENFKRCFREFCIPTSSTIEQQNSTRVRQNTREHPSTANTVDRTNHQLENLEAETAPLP
As to the kind of experiment: Receptor binding, displacement of [3H]DAMGO from rat brain membrane binding sites. Here is the method:
(§1) Peptide conjugates of Table 5 were tested in functional assays based on inhibition of electrically evoked contractions of the guinea pig ileum (GPI) and the mouse vas deferens (MVD). The GPI assay is representative for μ opioid receptor (MOR) interactions, whereas in the MVD assay opioid effects are primarily mediated by the δ opioid receptor (DOR). The assays were carried out as described in DiMaio et al., J. Med. Chem. (1982) 25, 1432-1438. Binding affinities for μ and δ receptors were determined by displacing, respectively, [^3H]DAMGO and [^3H]DSLET from rat brain membrane binding sites (see Schiller et al., Biochem. Biophys. Res. Commun. (1978) 85, 1332-1338).

The target in the next series is T2, δ opioid receptor (DOR) (Mus musculus, UniProt P32300).
T2 construct: the guinea pig ileum (GPI) and the mouse vas deferens (MVD); from tissue; host or cells: mouse vas deferens
T2 sequence (P32300 whole entry): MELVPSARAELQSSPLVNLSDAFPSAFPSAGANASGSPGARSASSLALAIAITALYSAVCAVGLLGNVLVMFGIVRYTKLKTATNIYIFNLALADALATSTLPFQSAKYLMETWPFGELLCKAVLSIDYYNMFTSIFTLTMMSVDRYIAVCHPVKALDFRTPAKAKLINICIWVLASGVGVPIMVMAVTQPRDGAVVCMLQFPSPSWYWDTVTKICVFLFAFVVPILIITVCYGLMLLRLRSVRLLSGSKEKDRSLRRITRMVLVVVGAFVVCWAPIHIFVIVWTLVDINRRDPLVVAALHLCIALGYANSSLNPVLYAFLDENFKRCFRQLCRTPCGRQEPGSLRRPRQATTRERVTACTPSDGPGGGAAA
Nature of the series: Inhibition of electrically evoked contractions of the mouse vas deferens (MVD). The format is cell-based. Here is the method:
as §1

The next series concerns the target T3, δ receptors (Rattus norvegicus, UniProt P33533).
T3 construct: from tissue; host or cells: rat brain membranes
As to the kind of experiment: Receptor binding, displacement of [3H]DSLET from rat brain membrane binding sites. As to the method:
as §1

T3 sequence (P33533 whole entry): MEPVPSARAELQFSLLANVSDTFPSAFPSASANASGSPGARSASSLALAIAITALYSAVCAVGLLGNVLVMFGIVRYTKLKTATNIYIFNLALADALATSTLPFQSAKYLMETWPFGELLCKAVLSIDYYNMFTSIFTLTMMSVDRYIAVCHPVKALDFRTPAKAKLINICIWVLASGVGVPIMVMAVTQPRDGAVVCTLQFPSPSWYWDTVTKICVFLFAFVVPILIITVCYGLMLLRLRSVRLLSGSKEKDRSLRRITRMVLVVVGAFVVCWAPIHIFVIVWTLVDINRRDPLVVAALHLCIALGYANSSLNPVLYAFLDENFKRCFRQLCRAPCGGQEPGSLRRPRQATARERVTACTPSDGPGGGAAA

Turning to `Cc1cc(O)cc(C)c1C[C@H](N)C(=O)N[C@H](CCCNC(=N)N)C(=O)N[C@@H](Cc1ccccc1)C(=O)NC(CCCCNC1CC(C)(C)N([O])C(C)(C)C1)C(N)=O` (stereo partly drawn) [H-Dmt-D-Arg-Phe-Lys(NH-TEMPO)-NH2], the “crossing the blood-brain barrier” value with CPIP rats (inferred from centrally mediated analgesic effect after s.c. dosing) is recorded as “capable of crossing the blood-brain barrier”. The Ki is 0.263 nM at μ receptors and 30.4 nM on δ receptors. Moreover, at δ opioid receptor (DOR), 1.15 nM corresponded to half-maximal inhibition (IC50).

Consider `Cc1cc(O)cc(C)c1C[C@H](N)C(=O)N[C@H](CCCNC(=N)N)C(=O)N[C@@H](Cc1ccccc1)C(=O)N[C@@H](CCCCNC(=O)[C@@]1(C)CCc2c(C)c(O)c(C)c(C)c2O1)C(N)=O` [H-Dmt-D-Arg-Phe-Lys(Tro[R])-NH2], for which the values for the Ki at μ receptors and on δ receptors were 0.273 nM and 3.64 nM, respectively. The compound also displayed an IC50 against δ opioid receptor (DOR) of 0.847 nM.

Turning to `Cc1cc(O)cc(C)c1C[C@H](N)C(=O)N[C@H](CCCNC(=N)N)C(=O)N[C@@H](Cc1ccccc1)C(=O)N[C@@H](CCCCNC(=O)[C@]1(C)CCc2c(C)c(O)c(C)c(C)c2O1)C(N)=O` [H-Dmt-D-Arg-Phe-Lys(Tro[S])-NH2, H-Dmt-D-Arg-Phe-Lys(Tro[S])—NH2], the Ki at μ receptors amounted to 0.252 nM; at δ receptors, 3.48 nM. Besides, the IC50 against δ opioid receptor (DOR) turned out to be 3.76 nM.

Take `Cc1cc(O)cc(C)c1C[C@H](N)C(=O)N[C@H](CCCNC(=N)N)C(=O)N[C@@H](Cc1ccccc1)C(=O)N[C@@H](CCCCN)C(N)=O` [H-Dmt-D-Arg-Phe-Lys-NH2]: the “ED50 ± SEM (analgesic potency)” value in the series with CPIP rats (reversal of mechanical allodynia in CPIP rats, s.c. administration) was 0.103 ± 0.046 mg/kg.

As to `Cc1cc(O)cc(C)c1C[C@H](N)C(=O)N[C@H](CCCNC(=N)N)C(=O)N[C@@H](Cc1ccccc1)C(=O)N[C@@H](CCCCN)C(=O)NCCC(=O)NC1CC(C)(C)N([O])C(C)(C)C1` [H-Dmt-D-Arg-Phe-Lys-NH—(CH2)2—CO—NH-TEMPO] (HELM PEPTIDE1{[Cc1cc(O)cc(C)c1C[C@H](N)C(=O)[*:2]].[dR].F.K.[bAla].[CC1(C)CC(N[*:1])CC(C)(C)N1[O]]}$$$$V2.0), the values for the Ki on μ receptors and at δ receptors were 4.56 nM and 2.15 nM, respectively. This compound also showed an IC50 against δ opioid receptor (DOR) of 262 nM.

Take `CN1CC[C@]23c4c5ccc(O)c4O[C@H]2[C@@H](O)C=C[C@H]3[C@H]1C5` [morphine]: the ED50 with CPIP rats (Rattus norvegicus, sc, read-out: ED50 ± SEM (analgesic potency)) worked out at 1.55 ± 0.664 mg/kg. For the same compound, the “Potency Ratio” value in the series on CPIP rats (relative to morphine (=1), CPIP rats, s.c.) is reported as 1.
